# Like-named read-outs stand apart in the source and are kept apart here.
# Columns and labels:
# Flpin-293-PDE4B2 cells [1] = target: T1, Flpin-293-PDE4B2 cells (Homo sapiens, UniProt Q07343); test: cell-based; conditions: for inhibition at 0.01 µM: read-out: Cell Inhibition % @10 nM, 10 nM, Flpin-293-PDE4B2 cells; for inhibition at 0.1 µM: read-out: Cell Inhibition % @100 nM, 100 nM, Flpin-293-PDE4B2 cells; for inhibition at 0.001 µM: read-out: Cell Inhibition % @1 nM, 1 nM, Flpin-293-PDE4B2 cells
# T1 sequence (Q07343 1-564 isoform Q07343-2): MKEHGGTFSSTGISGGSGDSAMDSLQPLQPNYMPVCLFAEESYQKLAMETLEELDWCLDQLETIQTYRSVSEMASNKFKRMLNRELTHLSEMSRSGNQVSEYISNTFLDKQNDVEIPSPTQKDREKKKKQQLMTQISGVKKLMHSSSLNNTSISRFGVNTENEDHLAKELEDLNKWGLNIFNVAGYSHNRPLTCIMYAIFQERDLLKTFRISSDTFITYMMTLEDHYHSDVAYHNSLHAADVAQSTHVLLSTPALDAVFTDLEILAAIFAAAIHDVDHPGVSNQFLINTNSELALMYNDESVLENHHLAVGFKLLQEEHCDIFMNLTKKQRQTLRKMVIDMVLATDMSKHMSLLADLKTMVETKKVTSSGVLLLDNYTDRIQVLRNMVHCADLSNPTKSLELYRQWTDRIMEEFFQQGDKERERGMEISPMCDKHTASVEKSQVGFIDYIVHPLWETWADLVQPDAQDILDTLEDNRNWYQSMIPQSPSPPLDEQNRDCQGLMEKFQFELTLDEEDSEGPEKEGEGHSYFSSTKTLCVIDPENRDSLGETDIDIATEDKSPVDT
# PDE4B2 [2] = target: T2, PDE4B2 (Homo sapiens, UniProt Q07343); test: biochemical; conditions: for inhibition at 0.01 µM: read-out: PDE4B2 Enzyme Inhibition % @10 nM; for inhibition at 0.1 µM: read-out: PDE4B2 Enzyme Inhibition % @100 nM
# T2 sequence (Q07343 1-564 isoform Q07343-2, species assumed): as the sequence (Q07343 1-564 isoform Q07343-2) above
# Flpin-293-PDE4B2 cells [3] = target: T1, Flpin-293-PDE4B2 cells; conditions: for IC50: read-out: PDE4B2 IC50 Cell, Foskolin; for Cell Inhibition % @1 nM: 0.001 µM; for Cell Inhibition % @10 nM: 0.01 µM; for Cell Inhibition % @100 nM: 0.1 µM
# PDE4B2 [4] = target: T2, PDE4B2; conditions: read-out: PDE4B2 IC50; enzyme assay
# PDE4D2 = PDE4D2 (Homo sapiens, UniProt Q08499); test: PDE4D2 enzyme experiment (AMP-Glo)
# PDE4D2, sequence (Q08499 303-809 limits assumed): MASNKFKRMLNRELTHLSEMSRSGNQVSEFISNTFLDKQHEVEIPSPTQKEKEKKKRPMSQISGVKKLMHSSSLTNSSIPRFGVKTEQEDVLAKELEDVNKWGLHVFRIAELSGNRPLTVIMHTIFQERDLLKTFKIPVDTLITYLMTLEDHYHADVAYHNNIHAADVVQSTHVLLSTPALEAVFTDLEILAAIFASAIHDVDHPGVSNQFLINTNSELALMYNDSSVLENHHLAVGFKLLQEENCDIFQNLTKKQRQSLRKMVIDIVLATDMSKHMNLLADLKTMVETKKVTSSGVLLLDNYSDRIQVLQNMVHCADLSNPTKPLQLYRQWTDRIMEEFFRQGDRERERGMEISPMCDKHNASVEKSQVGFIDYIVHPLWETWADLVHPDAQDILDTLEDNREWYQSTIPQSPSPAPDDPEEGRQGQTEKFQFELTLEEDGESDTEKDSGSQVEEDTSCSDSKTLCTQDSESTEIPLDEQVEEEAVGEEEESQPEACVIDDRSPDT
# [5] = read-out: PDE4D2 IC50 Binding, enzyme assay
inhibition at 0.01 µM (Flpin-293-PDE4B2 cells [1]) [%],inhibition at 0.1 µM (Flpin-293-PDE4B2 cells [1]) [%],inhibition at 0.01 µM (PDE4B2 [2]) [%],inhibition at 0.1 µM (PDE4B2 [2]) [%],IC50 (PDE4B2 [4]) [nM],IC50 (PDE4D2; [5]) [nM],inhibition at 0.001 µM (Flpin-293-PDE4B2 cells [1]) [%],SMILES,further results
9,33.2,72.3,98.6,,,,[O-][S+]1CCc2nc(N3Cc4ccc(Cl)cc4C3)nc(NC3(CO)CCC3)c21 (stereo not drawn) [Compound 33],
,,,,0.273,0.653,,[O-][S+]1CCc2nc(N3CCc4cc(N5CCCC5C(F)(F)F)ccc4C3)nc(NC3(CO)CCC3)c21 (stereo not drawn) [Compound 158],Cell Inhibition % @1 nM (Flpin-293-PDE4B2 cells [3]): 14.79%; Cell Inhibition % @10 nM (Flpin-293-PDE4B2 cells [3]): 61.64%; Cell Inhibition % @100 nM (Flpin-293-PDE4B2 cells [3]): 99.33%
17.7,55.2,70.9,98.2,,,,O=[N+]([O-])c1ccc2c(c1)CN(c1nc3c(c(NC4(CO)CCC4)n1)[S+]([O-])CC3)C2 (stereo not drawn) [Compound 61],
,83.1,,,,,8.27,[O-][S+]1CCc2nc(N3CCc4cc(N5CCCC5C(F)(F)F)ccc4C3)nc(NC3(CO)CCC3)c21 (stereo not drawn) [Compound 157],Cell Inhibition % @10 nM (Flpin-293-PDE4B2 cells [3]): 23.21%
69.6,99,98.9,100,,,,[O-][S+]1CCc2nc(N3CCc4ccc(Br)cc4CC3)nc(NC3(CO)CCC3)c21 (stereo not drawn) [Compound 46],
,,,,0.224,0.748,,N#CC1CCN(c2ccc3c(c2)CCN(c2nc4c(c(NC5(CO)CCC5)n2)[S+]([O-])CC4)C3)C1 (stereo not drawn) [Compound 160],Cell Inhibition % @1 nM (Flpin-293-PDE4B2 cells [3]): 15.06%; Cell Inhibition % @10 nM (Flpin-293-PDE4B2 cells [3]): 75.05%; Cell Inhibition % @100 nM (Flpin-293-PDE4B2 cells [3]): 99.84%
,,98.4,100,,,,COc1ccc2c(c1)CCN(c1nc3c(c(NC4(CO)CCC4)n1)[S+]([O-])CC3)CC2 (stereo not drawn) [Compound 47],
18.1,66.6,74.5,99,,,,[O-][S+]1CCc2nc(N3CCc4ccsc4C3)nc(NC3(CO)CCC3)c21 (stereo not drawn) [Compound 36],
76.8,99.9,,,0.351,0.398,10.3,[O-][S+]1CCc2nc(N3CCc4cc(N5CCC6(COC6)C5)ccc4C3)nc(NC3(CO)CCC3)c21 (stereo not drawn) [Compound 165],
25.7,91.7,,,1.26,1.76,1.42,[O-][S+]1CCc2nc(N3CCc4cc(N5CCC(C(F)(F)F)C5)ccc4C3)nc(NC3(CO)CCC3)c21 (stereo not drawn) [Compound 156],
49.6,97.5,,,0.418,0.694,11.8,[O-][S+]1CCc2nc(N3CCc4cc(N5CC[C@@H](F)C5)ccc4C3)nc(NC3(CO)CCC3)c21 (stereo partly drawn) [Compound 150],
78.6,102,,,0.368,0.651,16.2,[O-][S+]1CCc2nc(N3CCc4cc(N5CCC[C@H]5CO)ccc4C3)nc(NC3(CO)CCC3)c21 (stereo partly drawn) [Compound 132],

# Second part, the compound before the results:
SMILES,inhibition at 0.01 µM (Flpin-293-PDE4B2 cells [1]) [%],inhibition at 0.1 µM (Flpin-293-PDE4B2 cells [1]) [%],inhibition at 0.01 µM (PDE4B2 [2]) [%],inhibition at 0.1 µM (PDE4B2 [2]) [%],IC50 (PDE4B2 [4]) [nM],IC50 (PDE4D2; [5]) [nM],inhibition at 0.001 µM (Flpin-293-PDE4B2 cells [1]) [%],further results
C[C@@H]1c2ccc(Cl)cc2CCN1c1nc2c(c(NC3(CO)CCC3)n1)[S@+]([O-])CC2 [Compound 29],,,,,,,,IC50 (Flpin-293-PDE4B2 cells [3]): 20.9 nM
[O-][S+]1CCc2nc(N3CCc4sc(Br)cc4C3)nc(NC3(CO)CCC3)c21 (stereo not drawn) [Compound 55],52.8,93.4,93.3,99.9,,,,
[O-][S+]1CCc2nc(N3Cc4ccc(C(F)(F)F)cc4C3)nc(NC3(CO)CCC3)c21 (stereo not drawn) [Compound 62],29.5,69.1,83.8,101,,,,
C[C@H]1c2ccc(N3CCCC3)cc2CCN1c1nc2c(c(NC3(CO)CCC3)n1)[S+]([O-])CC2 (stereo partly drawn) [Compound 167],,,,,0.087,0.993,,IC50 (Flpin-293-PDE4B2 cells [3]): 20.7 nM
"[O-][S@+]1CCc2nc(N3CCc4c(ccc5[nH]ncc45)C3)nc(NC3(CO)CCC3)c21 [Compound 118, (R)-4-((1-(hydroxymethyl)cyclobutyl)amino)-2-(3,6,8,9-tetrahydro-7H-pyrazolo[4,3-f]isoquinolin-7-yl)-6,7-dihydrothieno[3,2-d]pyrimidine 5-oxide]",,,,,,,,IC50 (PDE4B2 [2]): 0.414 nM; IC50 (PDE4D2): 0.748 nM
NC(=O)Cc1ccc(Nc2nc(N3CCc4cc(Cl)ccc4C3)nc3c2[S+]([O-])CC3)cc1 (stereo not drawn) [Compound 127],73,100,,,0.164,0.424,9.78,
Cn1cc(CNc2nc(N3CCc4cc(N5CCCC5)ccc4C3)nc3c2[S+]([O-])CC3)cn1 (stereo not drawn) [Compound 190],47.1,96.7,,,0.168,0.572,3.93,
Cn1nc2c(c1Cl)CN(c1nc3c(c(NC4(CO)CCC4)n1)[S+]([O-])CC3)CC2 (stereo not drawn) [Compound 58],15.9,57.1,68.7,97.5,,,,
[O-][S+]1CCc2nc(N3CCc4cc(N5CCCC5)ccc4C3)nc(NC3CCOCC3)c21 (stereo not drawn) [Compound 189],93.5,101,,,0.066,0.145,24.4,

# Source: US20260285880A1, “SUBSTITUTED DIHYDROTHIENOPYRIMIDINE COMPOUND, PREPARATION METHOD THEREFOR, AND USE THEREOF” (SHANGHAI YIDI BIOTECHNOLOGY CO., LTD., priority 2023, published 2026)
